Columns and labels:
[1] = tested on: Malme-3 Normal Human Skin Fibroblasts; assay: Cell-death detection ELISA (apoptosis), Malme-3 normal skin fibroblasts; type: cell-based
Protocol: (§1) Working stock solutions (10× strength) are made in sterile water immediately before use. For comparative evaluation, stock solutions of Test 2 and Test 4 solutions are prepared in sterile water, normalized to contain AA equivalents identical to the Test 1 stock. These stocks are stored at room temperature for use in evaluations. […] Parallel sets of wells are treated similarly with stock solutions of CA+CT and CA alone, containing the same equivalents of AA as Test 1. Control cultures are treated with an equivalent volume of sterile water. Periodic treatment with these compositions is repeated at 1-2 day intervals by direct addition of fresh solutions (without change of growth medium). […] Briefly, the ELISA assay is carried out as follows. […] The “Number of Treatments” is the total number of treatments with the Composition. The “Maximum Fold Increase in Apoptosis” is the maximal fold change in apoptosis over the control and the “Maximum Dose” is the concentration of the Composition which induces the “Maximum Fold Apoptosis” compared to the control.

[2] = tested on: SK-Hep-1 Liver adenocarcinoma; assay: Cell-death detection ELISA (apoptosis), SK-Hep-1 liver adenocarcinoma; type: cell-based, Human
Protocol: as §1

T-84 Colon Carcinoma = assay: Cell-death detection ELISA (apoptosis), T-84 colon carcinoma; type: cell-based, Human
Protocol: as §1

[3] = tested on: WRL-68 Normal Human Liver Cells; assay: Cell-death detection ELISA (apoptosis), WRL-68 normal liver cells; type: cell-based
Protocol: as §1

Malme-3M Melanoma = assay: Cell-death detection ELISA (apoptosis), Malme-3M melanoma; type: cell-based, Human
Protocol: as §1

SK-N-MC Neuroblastoma = assay: Cell-death detection ELISA (apoptosis), SK-N-MC neuroblastoma; type: cell-based, Human
Protocol: as §1

melanoma cells = details: treatment as in Example 2
Protocol: (§2) Cultures are re-fed periodically with additions of respective supplements, with or without medium change as indicated. Controls consist of cells receiving growth medium without added supplement.
(§3) The following day, threonate treatment is initiated using one of two protocols.
(§4) In one protocol (short exposure), monolayers are washed and exposed directly to 1 mL/well of 7.5-30 mM threonate (prepared in Ringer's solution) for brief periods at 37 C. as described by Fay and Verlangieri (referenced above). […] After exposure, the solution is removed and replaced by growth medium. […]
(§5) Cell survival following treatment is assessed at predetermined intervals by taking viable cell counts using a Neubauer haemocytometer. Viable cells are scored as those capable excluding trypan blue as previously described (Harakeh and Jariwalla, Am.J.Clin.Nutr. 54:1231S-1235S (1991)). […]
(§6) The induction of apoptosis following treatment of various tumor cell types with the Test compositions and controls described in Example 1 is evaluated using an enzyme-linked immunoassay (“ELISA”) developed by Boehringer-Mannheim (Indianapolis, Ind.). […] The presence and level of nucleosomal fragments in cytoplasmic lysates after different treatments is determined using the procedure specified in the cell-death detection ELISA kit, supplied by Boehringer-Mannheim. […]

hepatoma cells = details: treatment as in Example 2
Protocol: as §2, §3, §4, §5, §6

[4] = concentration causing 2-fold change in apoptosis over control
[5] = concentration inducing the maximum fold apoptosis
[6] = maximal fold change over control

Calcium Ascorbate
MINIMUM APOPTOTIC DOSE, DOSE CONC. (%) [1, 4]: 0.025%
MAXIMUM FOLD INCREASE IN APOPTOSIS, DOSE CONC. (%) [1, 5]: 0.025%
MAXIMUM FOLD INCREASE IN APOPTOSIS [1, 6]: 2.16 fold
MINIMUM APOPTOTIC DOSE, DOSE CONC. (%) [2, 4]: 0.006%
MAXIMUM FOLD INCREASE IN APOPTOSIS, DOSE CONC. (%) [2, 5]: 0.033%
MAXIMUM FOLD INCREASE IN APOPTOSIS [2, 6]: 12.04 fold
MINIMUM APOPTOTIC DOSE, DOSE CONC. (%) (T-84 Colon Carcinoma; [4]): >0.06%
MAXIMUM FOLD INCREASE IN APOPTOSIS, DOSE CONC. (%) (T-84 Colon Carcinoma; [5]): 0.033%
MAXIMUM FOLD INCREASE IN APOPTOSIS (T-84 Colon Carcinoma; [6]): 1.77 fold
MINIMUM APOPTOTIC DOSE, DOSE CONC. (%) [3, 4]: 0.012%
MAXIMUM FOLD INCREASE IN APOPTOSIS, DOSE CONC. (%) [3, 5]: 0.012%
MAXIMUM FOLD INCREASE IN APOPTOSIS [3, 6]: 2.22 fold
MINIMUM APOPTOTIC DOSE, DOSE CONC. (%) (Malme-3M Melanoma; [4]): 0.012%
MAXIMUM FOLD INCREASE IN APOPTOSIS, DOSE CONC. (%) (Malme-3M Melanoma; [5]): 0.025%
MAXIMUM FOLD INCREASE IN APOPTOSIS (Malme-3M Melanoma; [6]): 92.8 fold
MINIMUM APOPTOTIC DOSE, DOSE CONC. (%) (SK-N-MC Neuroblastoma; [4]): 0.015%
MAXIMUM FOLD INCREASE IN APOPTOSIS, DOSE CONC. (%) (SK-N-MC Neuroblastoma; [5]): 0.015%
MAXIMUM FOLD INCREASE IN APOPTOSIS (SK-N-MC Neuroblastoma; [6]): 5.03 fold

Calcium Threonate [calcium threonate (CT)]
cell death (apoptosis) in melanoma cells as compared to normal cellular counterparts (melanoma cells): selective dose-dependent cell death (apoptosis)
cell death (apoptosis) in hepatoma cells as compared to normal cellular counterparts (hepatoma cells): selective dose-dependent cell death (apoptosis)

O=C1O[C@H]([C@@H](O)CO)C(O)=C1O [ascorbic acid (AA), Ascorbic Acid]
cell death (apoptosis) in melanoma cells as compared to normal cellular counterparts (melanoma cells): selective dose-dependent cell death (apoptosis)

— patent US20040092549A1, “Methods and compositions for selective cancer chemotherapy” (priority 2001, published 2004)
